Test results taken from patent US20240139158A1, “METHODS OF TREATING PULMONARY DISEASES AND DISORDERS” (Proteostasis Therapeutics, Inc., priority 2015, published 2024).

Target: T1, CFTR, genotype Non-CF (“wild-type”/“wild-type”) (Homo sapiens, UniProt P13569)
T1 construct: Non-CF; endogenous in cells
Assay: Activity by CFTR genotype with compound A (Example 79, Table 2)
Assay type: cell-based
Settings: Relative Activity of 100% = Vehicle treated, 10 uM
Method: Table 2 indicates mutation type and activity with compounds/combination with compound A. ## indicates activity at 30 uM of 50% to <100% of the indicated relative activity treatment, #### indicates activity at 30 uM of ≥150% of the indicated relative activity treatment, + indicates activity at 10 uM of 15% to <50% of the indicated relative activity treatment, ++ indicates activity at 10 uM of 50% to <100% of the indicated relative activity treatment, +++ indicates activity at 10 uM of 100% to <150% of the indicated relative activity treatment, ++++ indicates activity at 10 uM of >150% of the indicated relative activity treatment. NB124 is used at 250 ug/ml, ivacaftor is used at 1 uM, lumacaftor is used at 3 uM, and VX-661 is used at 3 uM.

T1 sequence (P13569 whole entry): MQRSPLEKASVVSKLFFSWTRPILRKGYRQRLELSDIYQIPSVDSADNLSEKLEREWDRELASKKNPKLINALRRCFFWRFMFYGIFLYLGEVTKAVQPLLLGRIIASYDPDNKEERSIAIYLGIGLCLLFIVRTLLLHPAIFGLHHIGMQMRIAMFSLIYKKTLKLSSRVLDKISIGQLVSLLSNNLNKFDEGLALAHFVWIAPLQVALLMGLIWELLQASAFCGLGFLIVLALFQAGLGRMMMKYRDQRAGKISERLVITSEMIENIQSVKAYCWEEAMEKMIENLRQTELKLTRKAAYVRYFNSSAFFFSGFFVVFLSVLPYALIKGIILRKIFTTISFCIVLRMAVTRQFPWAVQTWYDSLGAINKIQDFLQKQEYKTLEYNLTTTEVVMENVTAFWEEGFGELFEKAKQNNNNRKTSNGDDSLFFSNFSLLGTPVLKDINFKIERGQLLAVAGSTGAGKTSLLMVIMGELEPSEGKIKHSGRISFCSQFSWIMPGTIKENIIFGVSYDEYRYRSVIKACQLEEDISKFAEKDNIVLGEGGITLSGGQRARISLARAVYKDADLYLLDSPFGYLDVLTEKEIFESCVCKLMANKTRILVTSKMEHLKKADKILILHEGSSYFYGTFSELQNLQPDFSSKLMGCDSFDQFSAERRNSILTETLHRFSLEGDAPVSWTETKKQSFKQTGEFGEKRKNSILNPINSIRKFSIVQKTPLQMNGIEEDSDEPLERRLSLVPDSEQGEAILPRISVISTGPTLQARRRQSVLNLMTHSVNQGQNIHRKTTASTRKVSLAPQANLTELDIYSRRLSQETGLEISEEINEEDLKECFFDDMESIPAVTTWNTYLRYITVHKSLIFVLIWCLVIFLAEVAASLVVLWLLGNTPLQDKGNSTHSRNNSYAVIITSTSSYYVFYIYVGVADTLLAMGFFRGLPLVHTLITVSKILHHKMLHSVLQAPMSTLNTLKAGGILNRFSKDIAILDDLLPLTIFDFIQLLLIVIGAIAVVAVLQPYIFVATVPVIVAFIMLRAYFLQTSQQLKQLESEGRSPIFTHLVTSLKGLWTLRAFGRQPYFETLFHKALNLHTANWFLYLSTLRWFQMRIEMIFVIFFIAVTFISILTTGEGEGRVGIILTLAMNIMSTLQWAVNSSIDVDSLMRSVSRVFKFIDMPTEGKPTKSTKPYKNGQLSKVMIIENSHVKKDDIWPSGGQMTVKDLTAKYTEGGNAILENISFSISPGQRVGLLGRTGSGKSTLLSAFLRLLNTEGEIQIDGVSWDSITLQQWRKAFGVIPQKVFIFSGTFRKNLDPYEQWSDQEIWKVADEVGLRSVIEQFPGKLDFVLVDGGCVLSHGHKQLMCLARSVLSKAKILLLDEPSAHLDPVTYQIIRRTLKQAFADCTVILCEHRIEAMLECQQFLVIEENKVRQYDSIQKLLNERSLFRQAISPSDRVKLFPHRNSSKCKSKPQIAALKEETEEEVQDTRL

## C[C@@H](O)c1nnc(C2CC(NC(=O)c3cc(-c4ccccc4)no3)C2)o1 (stereo partly shown) [Compound A]
  Stand Alone activity: +++ (activity at 10 uM of 100% to <150% of the indicated relative activity treatment)
